Test results reported in ChEMBL document CHEMBL2429748, “DFT-based prediction of antifungal and insecticidal activities of perfluorophenyl antimony(III) and antimony(V) chlorides” (Med Chem Res, 2013).

Legend:
Type in all cases: functional, organism-based
Aspergillus niger [1] = test: Antifungal activity against Aspergillus niger assessed as growth inhibition at 10 ug/mL by agar diffusion method relative to control
Aspergillus niger [2] = test: Antifungal activity against Aspergillus niger assessed as growth inhibition at 50 ug/mL by agar diffusion method relative to control
Aspergillus niger [3] = test: Antifungal activity against Aspergillus niger assessed as growth inhibition at 20 ug/mL by agar diffusion method relative to control
Aspergillus flavus [4] = test: Antifungal activity against Aspergillus flavus assessed as growth inhibition at 50 ug/mL by agar diffusion method relative to control
Aspergillus niger [5] = test: Antifungal activity against Aspergillus niger assessed as growth inhibition at 100 ug/mL by agar diffusion method relative to control
Aspergillus flavus [6] = test: Antifungal activity against Aspergillus flavus assessed as growth inhibition at 20 ug/mL by agar diffusion method relative to control
Aspergillus flavus [7] = test: Antifungal activity against Aspergillus flavus assessed as growth inhibition at 100 ug/mL by agar diffusion method relative to control
Aspergillus flavus [8] = test: Antifungal activity against Aspergillus flavus assessed as growth inhibition at 10 ug/mL by agar diffusion method relative to control

Substance | growth inhibition (GI) (Aspergillus niger [1]) [%] | growth inhibition (GI) (Aspergillus niger [2]) [%] | growth inhibition (GI) (Aspergillus niger [3]) [%] | growth inhibition (GI) (Aspergillus flavus [4]) [%] | growth inhibition (GI) (Aspergillus niger [5]) [%] | growth inhibition (GI) (Aspergillus flavus [6]) [%] | growth inhibition (GI) (Aspergillus flavus [7]) [%] | growth inhibition (GI) (Aspergillus flavus [8]) [%]
chloro(ethyl)tris(pentafluorophenyl)-{5}-stibane | 60 | 80 | 75 | 83.3 | 95 | 73.3 | 96.7 | 66.6
chlorobis(perfluorophenyl)stibine | 25 | 70 | 50 | 76.6 | 95 | 66.6 | 86.7 | 53.3
dichloro(perfluorophenyl)stibine | 50 | 75 | 60 | 66.6 | 90 | 60 | 73.3 | 53.3
dichlorotris(pentafluorophenyl)-{5}-stibane | 30 | 60 | 50 | 73.3 | 80 | 66.6 | 83.3 | 60
tetrachloro(pentafluorophenyl)-{5}-stibane | 30 | 75 | 40 | 86.7 | 90 | 80 | 93.3 | 73.3
trichlorobis(pentafluorophenyl)-{5}-stibane | 25 | 60 | 40 | 83.3 | 75 | 76.6 | 96.7 | 60
tris(perfluorophenyl)stibine | 50 | 75 | 50 | 80 | 90 | 66.6 | 86.7 | 60
